# Test system: HCT116 cells
# Assay: CCK-8 anti-proliferation assay, HCT116
# Assay type: cell-based, human
# Conditions: CCK-8, 48 h, mean ± SD, three independent experiments
# Protocol: (§1) Tumor cell anti-proliferation activities were determined by cell counting kit-8 (CCK-8) assay.
# (§2) MCF-7, A375, and HeLa cells were cultured in DMEM, HCT116 cells were cultured in McCoy's 5A medium, and DU145 and CT26 were cultured in RPMI 1640 with 10% FBS, 1% penicillin-streptomycin solution (10,000 U/mL penicillin and 10,000 μg/mL streptomycin) at 37 °C under 5% CO2. The cells were seeded in 96-well plates (4 × 10^3 cells/well) overnight and then treated with various concentrations (1–50 μmol/L) of the compound. After 48 h, the cell viability was measured by CCK-8 assay. The absorbance of each well was measured using a microplate reader (Multiskan FC, Thermo Fisher Scientific, Massachusetts, USA) at 450 nm wavelength. Assays were performed in triplicate. Compound concentrations that inhibited cell growth by 50% (IC50) were calculated from the dose–response curves of each cell line. Data are mean ± SD values from three independent experiments.
row,IC50 [µM],SMILES
1,8.97 ± 1.03,"CCOC(=O)C1(n2cnc3c(Br)ncnc32)CSCC1O (single isomer, unassigned) [3a]"
2,17.4 ± 1.01,"CCOC(=O)C1(n2cnc3c(N(C)C)ncnc32)CSCC1O (single isomer, unassigned) [4a]"
3,43.9 ± 2.11,"CCOC(=O)C1(n2cnc3c(N4CCC(N5CCOCC5)CC4)ncnc32)CSCC1O (single isomer, unassigned) [15a]"
4,49.5 ± 2.02,"CCOC(=O)C1(n2cnc3c(N(C)C)ncnc32)CSCC1O (single isomer, unassigned) [4b]"
5,> 50,"CCOC(=O)C1(n2cnc3c(Br)ncnc32)CSCC1O (single isomer, unassigned) [3b]"
6,> 50,CCOC(=O)C1(n2cnc3cncnc32)CSCC1O (centres unmarked) [1a]
7,> 50,"CCOC(=O)C1(n2cnc3c(N4CCOCC4)ncnc32)CSCC1O (single isomer, unassigned) [9a]"
8,32 ± 2.09,"CCOC(=O)C1(n2cnc3c(N4CCC(N5CCOCC5)CC4)ncnc32)CSCC1O (single isomer, unassigned) [15b]"
9,> 50,"CCOC(=O)C1(n2cnc3c(Cl)ncnc32)CSCC1O (single isomer, unassigned) [2b]"
10,17.1 ± 1.12,"CCOC(=O)C1(n2cnc3c(N4CCOCC4)ncnc32)CSCC1O (single isomer, unassigned) [9b]"
11,10.1 ± 1.01,"CCOC(=O)C1(n2cnc3c(N4CCSCC4)ncnc32)CSCC1O (single isomer, unassigned) [10b]"
12,> 50,CCOC(=O)C1(n2cnc3c(OCC)ncnc32)CSCC1O (centres unmarked) [6a]

# Continued, molecule first:
row,SMILES,IC50 [µM]
1,"CCOC(=O)C1(n2cnc3c(N4CCC(F)CC4)ncnc32)CSCC1O (single isomer, unassigned) [12a]",1.64 ± 0.27
2,"CCOC(=O)C1(n2cnc3c(N4CCC(C(F)(F)F)CC4)ncnc32)CSCC1O (single isomer, unassigned) [13b]",2.37 ± 0.36
3,"CCOC(=O)C1(n2cnc3c(N4CCCC4)ncnc32)CSCC1O (single isomer, unassigned) [20b]",22.8 ± 1.04
4,"CCOC(=O)C1(n2cnc3c(N4CCCCC4)nc(Cl)nc32)CSCC1O (single isomer, unassigned) [34b]",4.3 ± 0.51
5,"CCCSc1nc(N)nc2c1ncn2C1(C(=O)OCC)CSCC1O (single isomer, unassigned) [35b]",0.65 ± 0.21
6,"CCCSc1nc(N)nc2c1ncn2C1(C(=O)OCC)CSCC1O (single isomer, unassigned) [35a]",0.73 ± 0.11
7,"CCOC(=O)C1(n2cnc3c(N4CCC(C)CC4)ncnc32)CSCC1O (single isomer, unassigned) [11b]",0.91 ± 0.27
8,"CCCSc1nc(Cl)nc2c1ncn2C1(C(=O)OCC)CSCC1O (single isomer, unassigned) [37a]",3.81 ± 0.13
9,"CCOC(=O)C1(n2cnc3c(N4CCCCC4)nc(N)nc32)CSCC1O (single isomer, unassigned) [32b]",0.81 ± 0.12
10,"CCOC(=O)C1(n2cnc3c(N4CCC(Cc5ccccc5F)CC4)ncnc32)CSCC1O (single isomer, unassigned) [17b]",4.49 ± 1.13
11,"CCOC(=O)C1(n2cnc3c(N4CCCCC4)nc(Cl)nc32)CSCC1O (single isomer, unassigned) [34a]",7.2 ± 0.39
12,CCOC(=O)C1(n2cnc3c(N4CCC(Cc5ccccc5)CC4)ncnc32)CSCC1O (centres unmarked) [16a],1.2 ± 0.09
13,"CCCSc1nc(Cl)nc2c1ncn2C1(C(=O)OCC)CSCC1O (single isomer, unassigned) [37b]",2.7 ± 0.04
14,"CCOC(=O)C1(n2cnc3c(N4CCC(F)CC4)ncnc32)CSCC1O (single isomer, unassigned) [12b]",3.92 ± 0.87
15,"CCOC(=O)C1(n2cnc3c(N4CCCC4)ncnc32)CSCC1O (single isomer, unassigned) [20a]",39.1 ± 1.35
16,"CCOC(=O)C1(n2cnc3c(N4CCCCCC4)ncnc32)CSCC1O (single isomer, unassigned) [19b]",3.05 ± 0.67
17,"CCOC(=O)C1(n2cnc3c(N4CCC(Cl)CC4)ncnc32)CSCC1O (single isomer, unassigned) [14a]",15 ± 2.16

# Same assay, conditions: under 50 μmol/L; HeLa and HCT116
row,SMILES,anticancer activity
1,CCOC(=O)C1(n2cnc3cncnc32)CSCC1O (centres unmarked) [1a],no anticancer activity

# Test system: HeLa cells
# Assay: CCK-8 anti-proliferation assay, HeLa
# Assay type: cell-based, human
# Conditions: CCK-8, 48 h, mean ± SD, three independent experiments
# Protocol: as §1, §2
row,IC50 [µM],SMILES
1,> 50,"CCOC(=O)C1(n2cnc3c(Br)ncnc32)CSCC1O (single isomer, unassigned) [3a]"
2,9.81 ± 1.12,"CCOC(=O)C1(n2cnc3c(N(C)C)ncnc32)CSCC1O (single isomer, unassigned) [4a]"
3,13.7 ± 1.33,"CCOC(=O)C1(n2cnc3c(N4CCC(N5CCOCC5)CC4)ncnc32)CSCC1O (single isomer, unassigned) [15a]"
4,12 ± 1.57,"CCOC(=O)C1(n2cnc3c(N(C)C)ncnc32)CSCC1O (single isomer, unassigned) [4b]"
5,> 50,"CCOC(=O)C1(n2cnc3c(Br)ncnc32)CSCC1O (single isomer, unassigned) [3b]"
6,> 50,CCOC(=O)C1(n2cnc3cncnc32)CSCC1O (centres unmarked) [1a]
7,10.8 ± 1.03,"CCOC(=O)C1(n2cnc3c(N4CCOCC4)ncnc32)CSCC1O (single isomer, unassigned) [9a]"
8,7.71 ± 1.02,"CCOC(=O)C1(n2cnc3c(N4CCC(N5CCOCC5)CC4)ncnc32)CSCC1O (single isomer, unassigned) [15b]"
9,> 50,"CCOC(=O)C1(n2cnc3c(Cl)ncnc32)CSCC1O (single isomer, unassigned) [2b]"
10,10.2 ± 1.05,"CCOC(=O)C1(n2cnc3c(N4CCOCC4)ncnc32)CSCC1O (single isomer, unassigned) [9b]"
11,10.2 ± 1.93,"CCOC(=O)C1(n2cnc3c(N4CCSCC4)ncnc32)CSCC1O (single isomer, unassigned) [10b]"
12,> 50,CCOC(=O)C1(n2cnc3c(OCC)ncnc32)CSCC1O (centres unmarked) [6a]

# More lines, now with the values behind:
row,SMILES,IC50 [µM]
1,"CCOC(=O)C1(n2cnc3c(N4CCC(F)CC4)ncnc32)CSCC1O (single isomer, unassigned) [12a]",44.5 ± 3.12
2,"CCOC(=O)C1(n2cnc3c(N4CCC(C(F)(F)F)CC4)ncnc32)CSCC1O (single isomer, unassigned) [13b]",38.7 ± 2.09
3,"CCOC(=O)C1(n2cnc3c(N4CCCC4)ncnc32)CSCC1O (single isomer, unassigned) [20b]",12.2 ± 1.28
4,"CCOC(=O)C1(n2cnc3c(N4CCCCC4)nc(Cl)nc32)CSCC1O (single isomer, unassigned) [34b]",4.05 ± 0.37
5,"CCCSc1nc(N)nc2c1ncn2C1(C(=O)OCC)CSCC1O (single isomer, unassigned) [35b]",8.49 ± 1.02
6,"CCCSc1nc(N)nc2c1ncn2C1(C(=O)OCC)CSCC1O (single isomer, unassigned) [35a]",9.44 ± 1.27
7,"CCOC(=O)C1(n2cnc3c(N4CCC(C)CC4)ncnc32)CSCC1O (single isomer, unassigned) [11b]",23.4 ± 2.76
8,"CCCSc1nc(Cl)nc2c1ncn2C1(C(=O)OCC)CSCC1O (single isomer, unassigned) [37a]",1.58 ± 0.36
9,"CCOC(=O)C1(n2cnc3c(N4CCCCC4)nc(N)nc32)CSCC1O (single isomer, unassigned) [32b]",5.37 ± 1.09
10,"CCOC(=O)C1(n2cnc3c(N4CCC(Cc5ccccc5F)CC4)ncnc32)CSCC1O (single isomer, unassigned) [17b]",17 ± 1.12
11,"CCOC(=O)C1(n2cnc3c(N4CCCCC4)nc(Cl)nc32)CSCC1O (single isomer, unassigned) [34a]",4.86 ± 0.65
12,CCOC(=O)C1(n2cnc3c(N4CCC(Cc5ccccc5)CC4)ncnc32)CSCC1O (centres unmarked) [16a],3.34 ± 0.36
13,"CCCSc1nc(Cl)nc2c1ncn2C1(C(=O)OCC)CSCC1O (single isomer, unassigned) [37b]",5.98 ± 1.25
14,"CCOC(=O)C1(n2cnc3c(N4CCC(F)CC4)ncnc32)CSCC1O (single isomer, unassigned) [12b]",40.9 ± 3.08
15,"CCOC(=O)C1(n2cnc3c(N4CCCC4)ncnc32)CSCC1O (single isomer, unassigned) [20a]",11.4 ± 1.42
16,"CCOC(=O)C1(n2cnc3c(N4CCCCCC4)ncnc32)CSCC1O (single isomer, unassigned) [19b]",46.1 ± 2.46
17,"CCOC(=O)C1(n2cnc3c(N4CCC(Cl)CC4)ncnc32)CSCC1O (single isomer, unassigned) [14a]",12.1 ± 1.32

# From article PMC12278645, “Design, synthesis, and antitumor activity of novel thioheterocyclic nucleoside derivatives by suppressing the c-MYC pathway” (Acta Pharmaceutica Sinica. B, 2025)
